Data: patent publication US4138554A, “7-[D-α-(4-Hydroxy-1,5-naphthyridine-3-carboxamido)-α-phenyl (and p-hydroxyphenyl)acetamido]-3-carbamoyloxymethyl-3-cephem-4-carboxylic acids” (priority 1977, dated 1979)
Read-outs that look alike come from different tables or passages of the source.

Tests used:
Pseudomonas aeruginosa = experiment: MIC by agar dilution against 61 strains of Pseudomonas aeruginosa, secondary evaluation; assay type: cell-based; conditions: Pseudomonas aeruginosa
Description: Minimum inhibitory concentrations (MIC) of BB-S520 were determined by serial two-fold agar dilution method using Steers' apparatus on Meuller-Hinton agar plate against 31 test organisms for the primary screening and also against 61 strains of Pseudomonas aeruginosa for the secondary evaluation. The results are shown in Table 1 and Table 2 along with those of BB-S514 and sulbenicillin.
Minimum inhibitory concentrations (MIC) of cephalosporins in the present study were determined by serial two-fold agar dilution method using Steers' apparatus on Mueller-Hinton agar plate against 31 test organisms for the primary screening and also against 61 strains of Pseudomonas aeruginosa for the secondary evaluation.

E. coli Juhl = experiment: Median curative dose in mice, infection with E. coli Juhl; assay type: in vivo; conditions: Escherichia coli, sc
From the text: Median Curative Dose in Mgm./Kg.
Upon Subcutaneous Injection in Mice

CC1(C)S[C@@H]2[C@H](NC(=O)C(c3ccccc3)S(=O)(=O)O)C(=O)N2[C@H]1C(=O)O (some centres unmarked) [Sulbenicillin, sulbenicillin]
8.5 mg/kg: ED50 (E. coli Juhl; mice, E. coli Juhl infection, Table 5, read-out: PD50)
> 100 µg/mL: MIC (Pseudomonas aeruginosa; BBRI Pa-No. 24, Table 7, read-out: MIC) | MIC (Pseudomonas aeruginosa; BBRI Pa-No. 42, Table 2, read-out: MIC) | MIC (Pseudomonas aeruginosa; BBRI Pa-No. 42, Table 7, read-out: MIC) | MIC (Pseudomonas aeruginosa; BBRI Pa-No. 62, Table 2, read-out: MIC) | MIC (Pseudomonas aeruginosa; BBRI Pa-No. 62, Table 7, read-out: MIC)
9.5 mg/kg: ED50 (E. coli Juhl; subcutaneous injection in mice, E. coli Juhl, Table 4, read-out: Median Curative Dose (PD50))
6.3 µg/mL: MIC (Pseudomonas aeruginosa; BBRI Pa-No. 25, Table 7, read-out: MIC)
50 µg/mL: MIC (Pseudomonas aeruginosa; BBRI Pa-No. 28, CPH1C527/72, Table 7, read-out: MIC) | MIC (Pseudomonas aeruginosa; BBRI Pa-No. 28, CPH10527/72, Table 2, read-out: MIC) | MIC (Pseudomonas aeruginosa; BBRI Pa-No. 35, Table 7, read-out: MIC) | MIC (Pseudomonas aeruginosa; BBRI Pa-No. 37, Table 2, read-out: MIC) | MIC (Pseudomonas aeruginosa; BBRI Pa-No. 38, Table 2, read-out: MIC) | MIC (Pseudomonas aeruginosa; BBRI Pa-No. 43, Table 2, read-out: MIC) | MIC (Pseudomonas aeruginosa; BBRI Pa-No. 44 (unnamed strain), Table 7, read-out: MIC) | MIC (Pseudomonas aeruginosa; BBRI Pa-No. 44, Table 2, read-out: MIC) | MIC (Pseudomonas aeruginosa; BBRI Pa-No. 52, Table 7, read-out: MIC) | MIC (Pseudomonas aeruginosa; BBRI Pa-No. 54, Table 2, read-out: MIC) | MIC (Pseudomonas aeruginosa; BBRI Pa-No. 58, Table 2, read-out: MIC) | MIC (Pseudomonas aeruginosa; BBRI Pa-No. 58, Table 7, read-out: MIC) | MIC (Pseudomonas aeruginosa; BBRI Pa-No. 59, Table 2, read-out: MIC) | MIC (Pseudomonas aeruginosa; BBRI Pa-No. 61, Table 2, read-out: MIC) | MIC (Pseudomonas aeruginosa; BBRI Pa-No. 67, Table 2, read-out: MIC) | MIC (Pseudomonas aeruginosa; BBRI Pa-No. 68, Table 2, read-out: MIC) | MIC (Pseudomonas aeruginosa; BBRI Pa-No. 68, Table 7, read-out: MIC) | MIC (Pseudomonas aeruginosa; BBRI Pa-No. 69, Table 2, read-out: MIC) | MIC (Pseudomonas aeruginosa; BBRI Pa-No. 70, K-Ps102(CR-102), Table 7, read-out: MIC) | MIC (Pseudomonas aeruginosa; GN315, BBRI Pa-No. 27, GN315, Table 2, read-out: MIC) | MIC (Pseudomonas aeruginosa; GN4925, BBRI Pa-No. 44, GN4925, Table 7, read-out: MIC) | MIC (Pseudomonas aeruginosa; GN4925, BBRI Pa-No. 45, GN4925, Table 2, read-out: MIC)
100 µg/mL: MIC (Pseudomonas aeruginosa; BBRI Pa-No. 33, Table 2, read-out: MIC) | MIC (Pseudomonas aeruginosa; BBRI Pa-No. 35, Table 2, read-out: MIC) | MIC (Pseudomonas aeruginosa; BBRI Pa-No. 38, Table 7, read-out: MIC) | MIC (Pseudomonas aeruginosa; BBRI Pa-No. 69, Table 7, read-out: MIC)
0.8 µg/mL: MIC (Pseudomonas aeruginosa; BBRI Pa-No. 36, Table 7, read-out: MIC)
25 µg/mL: MIC (Pseudomonas aeruginosa; BBRI Pa-No. 29, D122, Table 2, read-out: MIC) | MIC (Pseudomonas aeruginosa; BBRI Pa-No. 29, D122, Table 7, read-out: MIC) | MIC (Pseudomonas aeruginosa; BBRI Pa-No. 30, Table 2, read-out: MIC) | MIC (Pseudomonas aeruginosa; BBRI Pa-No. 30, Table 7, read-out: MIC) | MIC (Pseudomonas aeruginosa; BBRI Pa-No. 32, Table 2, read-out: MIC) | MIC (Pseudomonas aeruginosa; BBRI Pa-No. 32, Table 7, read-out: MIC) | MIC (Pseudomonas aeruginosa; BBRI Pa-No. 33, Table 7, read-out: MIC) | MIC (Pseudomonas aeruginosa; BBRI Pa-No. 34, Table 2, read-out: MIC) | MIC (Pseudomonas aeruginosa; BBRI Pa-No. 37, Table 7, read-out: MIC) | MIC (Pseudomonas aeruginosa; BBRI Pa-No. 39, Table 2, read-out: MIC) | MIC (Pseudomonas aeruginosa; BBRI Pa-No. 39, Table 7, read-out: MIC) | MIC (Pseudomonas aeruginosa; BBRI Pa-No. 41, Table 2, read-out: MIC) | MIC (Pseudomonas aeruginosa; BBRI Pa-No. 41, Table 7, read-out: MIC) | MIC (Pseudomonas aeruginosa; BBRI Pa-No. 43, Table 7, read-out: MIC) | MIC (Pseudomonas aeruginosa; BBRI Pa-No. 51, Table 2, read-out: MIC) | MIC (Pseudomonas aeruginosa; BBRI Pa-No. 51, Table 7, read-out: MIC) | MIC (Pseudomonas aeruginosa; BBRI Pa-No. 52, Table 2, read-out: MIC) | MIC (Pseudomonas aeruginosa; BBRI Pa-No. 53, Table 2, read-out: MIC) | MIC (Pseudomonas aeruginosa; BBRI Pa-No. 53, Table 7, read-out: MIC) | MIC (Pseudomonas aeruginosa; BBRI Pa-No. 54, Table 7, read-out: MIC) | MIC (Pseudomonas aeruginosa; BBRI Pa-No. 55, Table 2, read-out: MIC) | MIC (Pseudomonas aeruginosa; BBRI Pa-No. 55, Table 7, read-out: MIC) | MIC (Pseudomonas aeruginosa; BBRI Pa-No. 56, Table 2, read-out: MIC) | MIC (Pseudomonas aeruginosa; BBRI Pa-No. 56, Table 7, read-out: MIC) | MIC (Pseudomonas aeruginosa; BBRI Pa-No. 57, Table 2, read-out: MIC) | MIC (Pseudomonas aeruginosa; BBRI Pa-No. 57, Table 7, read-out: MIC) | MIC (Pseudomonas aeruginosa; BBRI Pa-No. 59, Table 7, read-out: MIC) | MIC (Pseudomonas aeruginosa; BBRI Pa-No. 61, Table 7, read-out: MIC) | MIC (Pseudomonas aeruginosa; BBRI Pa-No. 64, Table 2, read-out: MIC) | MIC (Pseudomonas aeruginosa; BBRI Pa-No. 64, Table 7, read-out: MIC) | MIC (Pseudomonas aeruginosa; BBRI Pa-No. 65, Table 2, read-out: MIC) | MIC (Pseudomonas aeruginosa; BBRI Pa-No. 65, Table 7, read-out: MIC) | MIC (Pseudomonas aeruginosa; BBRI Pa-No. 66, Table 2, read-out: MIC) | MIC (Pseudomonas aeruginosa; BBRI Pa-No. 66, Table 7, read-out: MIC) | MIC (Pseudomonas aeruginosa; BBRI Pa-No. 67, Table 7, read-out: MIC) | MIC (Pseudomonas aeruginosa; BBRI Pa-No. 70, K-Ps102 (CR-102), Table 2, read-out: MIC)
3.1 µg/mL: MIC (Pseudomonas aeruginosa; BBRI Pa-No. 31, Table 7, read-out: MIC)
1.6 µg/mL: MIC (Pseudomonas aeruginosa; BBRI Pa-No. 36, Table 2, read-out: MIC)
12.5 µg/mL: MIC (Pseudomonas aeruginosa; GN315)
